Values quoted from earlier work, collected in patent US20210196621A1, “ALCOHOL-FREE BOTANICAL ORAL CARE PRODUCTS” (The Trustees of Columbia University in the City of New York, priority 2018, published 2021).

What was measured:
[1] = oral rinses, WO 2014/092999

Row | Compound | Synergistic activity with thymol and vanilla extract [1] | Synergism with botanical blend absent pomegranate extract (absent pomegranate extract) | Synergism with botanical blends containing pomegranate extract (blends containing pomegranate extract)
1 | [H]/N=C(\N/C(=N/[H])NCCCCCCNC(=N)NC(=N)Nc1ccc(Cl)cc1)Nc1ccc(Cl)cc1 [chlorhexidine] | did not | did not show significant synergism | synergistically enhanced the antibacterial activity
2 | PHMB | showed synergistic activity |  | 
